Measurements published in US20110251286A1, “Crystalline salts and/or co-crystals of O-desmethyltramadol” (GRUENENTHAL GmbH, priority 2010, published 2011).

Experiments:
[1] = Release in artificial intestinal juice; format: physicochemical; conditions: for Release in artificial intestinal juice, percent of the substance released: permeable bag, amount calculated on 100 mg free base
Protocol: Investigations on release were carried out in a Sotax AT7 smart release apparatus with UV measurement (Perkin Elmer photometer).
A vessel with Wood apparatus was used (for intrinsic release).
A pressing of 0.5 cm^2 surface area (diameter 8 mm) was produced with a force of 200 N using approximately 100 mg of active ingredient.
Release was carried out in a release medium, which is composed as described below: • Intestinal juice without pancreas powder, pH 6.8 (analogous to Ph. Eur.); 250.0 ml 6.8 g of potassium dihydrogenphosphate R+0.896 g of NaOH+water to 1000.0 ml.
Release was carried out in a release volume of in each case 500±5 ml at a temperature of the release medium of 37±1° C. with a stirring speed of 100±5 rpm.
The content determination was carried out by means of spectroscopic methods (UV spectroscopy, wavelength: 271 nm, cuvette: 10 mm). Sample taking was carried out manually.
In this release experiment, the individual compounds were placed in a permeable bag in an amount in each case calculated on 100 mg of the free base.
The results, expressed in percent of the substance released, are reproduced in the following tables. In this case, the compounds denote: HCl: hydrochloride; A: cinnamate; B: palmitate; C: decanoate; E: hemi-fumarate and F: hemi-sebacate.

[2] = Dynamic vapor sorption (DVS): sorption and desorption of moisture; format: physicochemical
Protocol: Investigations on the sorption and desorption of moisture (dynamic vapor sorption, DVS): DVS measurements were carried out on an apparatus of the type DVS 1000 from Porotec. The evaluation of the measurements was carried out using software from Surface Measurement Systems. At a temperature between 23° C. and 26° C., starting from a relative humidity of 50%, within 240 minutes the relative humidity first increased to 90% and then fell to 0%. This cycle was repeated a second time. The DVS charts shown are isothermal recordings (plots) of the change in the mass in % (change in mass—dry) as a function of the desired relative humidity in % (target RH). Correspondingly, the axes of the graphs are marked by ΔM [%] and RH [%]. The measurement curves of the first sorption are designated by 1-S, the subsequent first desorption by 1-D, the second sorption by 2-S and the second desorption by 2-D. Advantageously, mass changes between the sorption and desorption phase are as low as possible.

In the case of `CN(C)CC1CCCCC1(O)c1cccc(O)c1.CN(C)CC1CCCCC1(O)c1cccc(O)c1.O=C(O)CCCCCCCCC(=O)O` (centres unmarked) [F-2], the “Release in artificial intestinal juice, percent of the substance released” value (shortened to “Release … percent of the substance released”) ([1]; t 2 min) is reported as 96.05%, the “Release … percent of the substance released” value ([1]; t 4 min) is reported as 99.26% and the “Release … percent of the substance released” value ([1]; t 6 min) is reported as 100.16%. For the same compound, the “Release … percent of the substance released” value ([1]; t 8 min) was 1.21%, the “Release … percent of the substance released” value ([1]; t 10 min) was 100.92% and the “Release … percent of the substance released” value ([1]; t 12 min) was 101.24%. For the same compound, the “Release … percent of the substance released” value ([1]; t 15 min) was 101.22% and the “Release … percent of the substance released” value ([1]; t 30 min) was 101.26%.

With octanoate the “release rate compared to the hydrochloride salt” value ([1]; in artificial intestinal juice) was “decreased release rates compared to the hydrochloride salt”.

For `CCCCCCCCCC(=O)O.CN(C)CC1CCCCC1(O)c1cccc(O)c1` (centres unmarked) [C-2], the “Release … percent of the substance released” value ([1]; t 2 min) was 92.62%, the “Release … percent of the substance released” value ([1]; t 4 min) was 99.12% and the “Release … percent of the substance released” value ([1]; t 6 min) was 99.74%. The “Release … percent of the substance released” value ([1]; t 8 min) was 99.73%, the “Release … percent of the substance released” value ([1]; t 10 min) was 99.55% and the “Release … percent of the substance released” value ([1]; t 12 min) was 99.73%. For the same compound, the “Release … percent of the substance released” value ([1]; t 15 min) was 99.56% and the “Release … percent of the substance released” value ([1]; t 30 min) was 99.77%.

In the case of `CN(C)CC1CCCCC1(O)c1cccc(O)c1.CN(C)CC1CCCCC1(O)c1cccc(O)c1.O=C(O)C=CC(=O)O` (centres unmarked) [E-1], the “Release … percent of the substance released” value ([1]; t 2 min) is reported as 99.32%, the “Release … percent of the substance released” value ([1]; t 4 min) is reported as 100.25% and the “Release … percent of the substance released” value ([1]; t 6 min) is reported as 99.24%. For the same compound, the “Release … percent of the substance released” value ([1]; t 8 min) was 99.47%, the “Release … percent of the substance released” value ([1]; t 10 min) was 100.58% and the “Release … percent of the substance released” value ([1]; t 12 min) was 99.42%. For the same compound, the “Release … percent of the substance released” value ([1]; t 15 min) was 98.40% and the “Release … percent of the substance released” value ([1]; t 30 min) was 100.24%.

With `CN(C)C[C@H]1CCCC[C@]1(O)c1cccc(O)c1` [free base, (+)-(1R,2R)-3-[2-(dimethylamino)methyl-1-hydroxycyclohexyl]phenol] the “ΔM Desorption” value ([2]; 1st cycle, RH 0.0 %) was 0.00000%, the “ΔM Desorption” value ([2]; 1st cycle, RH 10.0 %) was 0.00395% and the “ΔM Desorption” value ([2]; 1st cycle, RH 20.0 %) was 0.00526%. The “ΔM Desorption” value ([2]; 1st cycle, RH 30.0 %) was 0.00526%, the “ΔM Desorption” value ([2]; 1st cycle, RH 40.0 %) was 0.00636% and the “ΔM Desorption” value ([2]; 1st cycle, RH 50.0 %) was 0.00614%. For the same compound, the “ΔM Hysteresis” value ([2]; 1st cycle, RH 50.0 %) was −0.00241%, the “ΔM Sorption” value ([2]; 1st cycle, RH 50.0 %) was 0.00855% and the “ΔM Desorption” value ([2]; 1st cycle, RH 60.0 %) was 0.00526%. For the same compound, the “ΔM Hysteresis” value ([2]; 1st cycle, RH 60.0 %) was −0.00219%, the “ΔM Sorption” value ([2]; 1st cycle, RH 60.0 %) was 0.00746% and the “ΔM Desorption” value ([2]; 1st cycle, RH 70.0 %) was 0.00395%. The “ΔM Hysteresis” value ([2]; 1st cycle, RH 70.0 %) was 0.00219%, the “ΔM Sorption” value ([2]; 1st cycle, RH 70.0 %) was 0.00175% and the “ΔM Desorption” value ([2]; 1st cycle, RH 80.0 %) was 0.00132%. For the same compound, the “ΔM Hysteresis” value ([2]; 1st cycle, RH 80.0 %) was 0.00592%, the “ΔM Sorption” value ([2]; 1st cycle, RH 80.0 %) was −0.00461% and the “ΔM Desorption” value ([2]; 1st cycle, RH 90.0 %) was −0.01097%. The “ΔM Sorption” value ([2]; 1st cycle, RH 90.0 %) was −0.01097%, the “ΔM Desorption” value ([2]; 2nd cycle, RH 0.0 %) was −0.00461% and the “ΔM Sorption” value ([2]; 2nd cycle, RH 0.0 %) was 0.00000%. The “ΔM Desorption” value ([2]; 2nd cycle, RH 10.0 %) was −0.00132%, the “ΔM Hysteresis” value ([2]; 2nd cycle, RH 10.0 %) was −0.00329% and the “ΔM Sorption” value ([2]; 2nd cycle, RH 10.0 %) was 0.00197%. For the same compound, the “ΔM Desorption” value ([2]; 2nd cycle, RH 20.0 %) was 0.00044%, the “ΔM Hysteresis” value ([2]; 2nd cycle, RH 20.0 %) was −0.00351% and the “ΔM Sorption” value ([2]; 2nd cycle, RH 20.0 %) was 0.00395%. The “ΔM Desorption” value ([2]; 2nd cycle, RH 30.0 %) was 0.00132%, the “ΔM Hysteresis” value ([2]; 2nd cycle, RH 30.0 %) was −0.00395% and the “ΔM Sorption” value ([2]; 2nd cycle, RH 30.0 %) was 0.00526%. For the same compound, the “ΔM Desorption” value ([2]; 2nd cycle, RH 40.0 %) was 0.00307%, the “ΔM Hysteresis” value ([2]; 2nd cycle, RH 40.0 %) was −0.00395% and the “ΔM Sorption” value ([2]; 2nd cycle, RH 40.0 %) was 0.00702%. For the same compound, the “ΔM Desorption” value ([2]; 2nd cycle, RH 50.0 %) was 0.00395%, the “ΔM Hysteresis” value ([2]; 2nd cycle, RH 50.0 %) was −0.00592% and the “ΔM Sorption” value ([2]; 2nd cycle, RH 50.0 %) was 0.00987%. The “ΔM Desorption” value ([2]; 2nd cycle, RH 60.0 %) was 0.00395%, the “ΔM Hysteresis” value ([2]; 2nd cycle, RH 60.0 %) was −0.00724% and the “ΔM Sorption” value ([2]; 2nd cycle, RH 60.0 %) was 0.01119%. The “ΔM Desorption” value ([2]; 2nd cycle, RH 70.0 %) was 0.00329%, the “ΔM Hysteresis” value ([2]; 2nd cycle, RH 70.0 %) was −0.00417% and the “ΔM Sorption” value ([2]; 2nd cycle, RH 70.0 %) was 0.00746%. The “ΔM Desorption” value ([2]; 2nd cycle, RH 80.0 %) was 0.00132%, the “ΔM Hysteresis” value ([2]; 2nd cycle, RH 80.0 %) was 0.00197% and the “ΔM Sorption” value ([2]; 2nd cycle, RH 80.0 %) was −0.00066%. The “ΔM Desorption” value ([2]; 2nd cycle, RH 90.0 %) was −0.01031%, the “ΔM Sorption” value ([2]; 2nd cycle, RH 90.0 %) was −0.01031% and the “ΔM Sorption” value ([2]; 3rd cycle, RH 0.0 %) was −0.00461%. For the same compound, the “ΔM Sorption” value ([2]; 3rd cycle, RH 10.0 %) was −0.0011%, the “ΔM Sorption” value ([2]; 3rd cycle, RH 20.0 %) was 0.00066% and the “ΔM Sorption” value ([2]; 3rd cycle, RH 30.0 %) was 0.00197%. For the same compound, the “ΔM Sorption” value ([2]; 3rd cycle, RH 40.0 %) was 0.00461% and the “ΔM Sorption” value ([2]; 3rd cycle, RH 50.0 %) was 0.00768%.

With `CCCCCCCCCC(=O)O.CN(C)CC1CCCCC1(O)c1cccc(O)c1` (centres unmarked) [C-1] the “Release … percent of the substance released” value ([1]; t 2 min) was 79.57%, the “Release … percent of the substance released” value ([1]; t 4 min) was 93.67% and the “Release … percent of the substance released” value ([1]; t 6 min) was 99.13%. For the same compound, the “Release … percent of the substance released” value ([1]; t 8 min) was 99.87%, the “Release … percent of the substance released” value ([1]; t 10 min) was 99.63% and the “Release … percent of the substance released” value ([1]; t 12 min) was 99.80%. The “Release … percent of the substance released” value ([1]; t 15 min) was 99.92% and the “Release … percent of the substance released” value ([1]; t 30 min) was 100.27%.
